Source: US8158810B2 (Gilead Sciences, Inc., priority 2006, dated 2012)
Values joined by “and” are separate entries in the source; they are usually repeats but may differ in a detail not shown here. Equal entries are not always repeated.

Experiments:
Type in all cases: biochemical
[1] = biological target: T1, hALDH2 (recombinant human mitochondria ALDH) (Homo sapiens, UniProt P05091); test: ALDH2 inhibition assay; settings: for hALDH2 inhibition at 1 μM: printed in the IC50 hALDH2 column
T1 sequence (P05091 18-517): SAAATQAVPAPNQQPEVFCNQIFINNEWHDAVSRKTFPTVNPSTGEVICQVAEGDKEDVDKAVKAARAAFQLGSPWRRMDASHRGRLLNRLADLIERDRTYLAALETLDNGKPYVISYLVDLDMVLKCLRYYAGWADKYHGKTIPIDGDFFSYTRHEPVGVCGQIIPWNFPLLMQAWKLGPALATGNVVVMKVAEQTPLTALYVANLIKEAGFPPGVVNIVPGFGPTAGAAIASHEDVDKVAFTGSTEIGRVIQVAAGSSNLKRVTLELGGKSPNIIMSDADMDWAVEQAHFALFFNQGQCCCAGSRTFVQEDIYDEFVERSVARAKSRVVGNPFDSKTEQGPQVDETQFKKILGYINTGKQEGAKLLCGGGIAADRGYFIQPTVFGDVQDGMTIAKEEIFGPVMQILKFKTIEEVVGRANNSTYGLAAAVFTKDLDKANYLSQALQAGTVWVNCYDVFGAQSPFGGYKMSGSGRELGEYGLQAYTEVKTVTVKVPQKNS
Procedure: ALDH2 inhibition assays were performed in sodium phosphate buffer (50 mM, pH 7.4) containing 1.2 mM NAD^+ (Sigma N7004), 1 nM hALDH2 (recombinant human mitochondria ALDH), various concentrations of test compounds (from 0.03 nM to […]), and 0.15 mM freshly prepared formaldehyde solution (Ladd Research 20295). Reactions were initiated by the addition of formaldehyde and rates were recorded by monitoring NADH formation in a temperature controlled (25° C.) FluoroMax-2 Fluorimeter with excitation and emission wavelengths set at 340 and 460 nm, respectively. […] Normally, IC50 values were determined by fitting concentration-inhibition data to sigmoidal dose-response curves with two-floating parameters: IC50 and Hill coefficient. When tight binding situation was suspected, apparent Ki values were estimated by fitting dose-response data to Morrison's equation [Methods in Enzymology 63, 437-467, 1979].

hMAO-A = biological target: T2, hMAO-A (Homo sapiens, UniProt P21397); test: MAO-A inhibition assay; settings: up to 10 μM; No = no inhibition; printed in the IC50 hMAO-A column
T2 construct: purchased Sigma M7316
T2 sequence (P21397 1-527): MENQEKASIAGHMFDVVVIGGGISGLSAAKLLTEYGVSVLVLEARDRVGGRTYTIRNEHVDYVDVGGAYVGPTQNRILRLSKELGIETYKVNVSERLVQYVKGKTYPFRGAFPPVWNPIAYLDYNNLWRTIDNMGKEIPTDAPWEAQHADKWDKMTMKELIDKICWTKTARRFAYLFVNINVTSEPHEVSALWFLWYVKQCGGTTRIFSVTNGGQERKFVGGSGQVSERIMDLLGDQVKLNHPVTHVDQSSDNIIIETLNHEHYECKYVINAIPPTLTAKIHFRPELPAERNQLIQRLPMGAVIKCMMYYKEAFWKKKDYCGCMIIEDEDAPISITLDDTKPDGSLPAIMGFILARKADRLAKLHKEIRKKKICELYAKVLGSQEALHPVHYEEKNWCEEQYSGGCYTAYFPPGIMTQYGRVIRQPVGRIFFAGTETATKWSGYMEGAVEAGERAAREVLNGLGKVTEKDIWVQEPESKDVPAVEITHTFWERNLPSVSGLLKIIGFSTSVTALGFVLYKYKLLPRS
Procedure, shortened: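 Human MAO-A (0.6 U/ml) or MAO-B (2.5 U/ml) in 0.1 M potassium phosphate pH 7.5 with 0.5 mM tyramine, 0.12 mM Amplex Red and HRP; compounds at 0.1 nM-10 μM, 30 min at 37 °C, absorbance at 570 nm. Background set with clorgyline (MAO-A) or deprenyl (MAO-B); IC50 from sigmoidal fits.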

hMAO-B = biological target: T3, hMAO-B (Homo sapiens, UniProt P27338); test: MAO-B inhibition assay; settings: No = no inhibition; for inhibition at 10 µM / hMAO-B inhibition at 10 μM: printed in the IC50 hMAO-B column
T3 construct: purchased Sigma M7441
T3 sequence (P27338 1-520): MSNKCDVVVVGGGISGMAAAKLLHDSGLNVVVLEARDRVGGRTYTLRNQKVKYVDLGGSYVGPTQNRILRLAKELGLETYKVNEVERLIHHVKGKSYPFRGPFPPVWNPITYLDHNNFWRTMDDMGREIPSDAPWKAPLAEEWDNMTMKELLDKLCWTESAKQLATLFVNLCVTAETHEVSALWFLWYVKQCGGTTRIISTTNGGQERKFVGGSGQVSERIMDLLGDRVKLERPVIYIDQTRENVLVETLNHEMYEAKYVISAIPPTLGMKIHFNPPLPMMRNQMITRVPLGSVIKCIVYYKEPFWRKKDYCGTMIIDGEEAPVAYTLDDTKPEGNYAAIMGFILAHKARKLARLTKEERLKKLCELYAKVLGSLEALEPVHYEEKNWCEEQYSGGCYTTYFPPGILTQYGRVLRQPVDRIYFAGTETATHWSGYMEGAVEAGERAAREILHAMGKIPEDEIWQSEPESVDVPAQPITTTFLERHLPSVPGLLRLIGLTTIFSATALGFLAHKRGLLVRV
Procedure: MAO-A (Sigma M7316) and MAO-B (Sigma M7441) inhibition assays were conducted in 96-well micro-plates according to the method described by Zhou et al. [Analytical Biochemistry 253, 169-174, 1997]. […] Reactions were initiated by the addition of a pre-mixed solution of tyramine, horseradish peroxidase and Amplex Red, and were allowed to proceed at 37° C. for 30 min. Enzyme activities were determined by measuring absorbance at 570 nm (SpectralMax Plate reader), absorbance of oxidized Amplex Red generated by this horseradish peroxidase-coupled reaction. Nonspecifically formed products were determined in the presence of 2 and 10 µM clorgyline and deprenyl for MAO-A and MAO-B, respectively. IC50 values were determined by fitting concentration-inhibition data to sigmoidal dose-response curves with two-floating parameters: IC50 and Hill coefficient.

IC50 [1]	hMAO-A inhibition up to 10 μM (hMAO-A)	inhibition at 10 µM (hMAO-B) [%]	hALDH2 inhibition at 1 μM [1] [%]	hMAO-B inhibition at 10 μM (hMAO-B)	hMAO-B inhibition up to 10 μM (hMAO-B)	Compound
17 nM and 15 nM	No	30				CC(Oc1ccc2c(=O)c(-c3ccc(O)cc3)coc2c1)c1nnc(-c2cccnc2)o1 (stereo not shown)
	No		14	No		O=c1c(-c2cn[nH]c2)coc2cc(OCc3noc(-c4cc(F)cc(C(F)(F)F)c4)n3)ccc12 [PT-75, 7-({5-[3-fluoro-5-(trifluoromethyl)phenyl](1,2,4-oxadiazol-3-yl)}methoxy)-3-(5-hydropyrazol-4-yl)chromen-4-one]
98 nM	No			No		3-(4-hydroxyphenyl)-7-[(5-(4-pyridyl)(1,2,4-oxadiazol-3-yl))ethoxy]chromen-4-one [PT-117]
63 nM	No			21%		ethyl 3-[7-({3-[3-fluoro-5-(trifluoromethyl)phenyl](1,2,4-oxadiazol-5-yl)}ethoxy)-4-oxochromen-3-yl]benzoate [PT-76]
			25			N#Cc1cc(-c2coc3cc(OCc4noc(-c5cc(F)cc(C(F)(F)F)c5)n4)ccc3c2=O)ccc1F [PT-9, 2-fluoro-5-[7-({5-[5-fluoro-3-(trifluoromethyl)phenyl](1,2,4-oxadiazol-3-yl)}methoxy)-4-oxochromen-3-yl]benzenecarbonitrile]
110 nM						O=c1c(-c2ccc(O)cc2)coc2cc(OCCc3n[nH]cc3-c3ccc(Cl)cc3)ccc12 [PT-51, 7-{2-[4-(4-chlorophenyl)pyrazolyl]ethoxy}-3-(4-hydroxyphenyl)chromen-4-one]
5 nM	No			No		O=c1c(-c2ccc(O)cc2)coc2cc(OCCc3nnc(-c4ccc(F)cc4)o3)ccc12 [PT-112, 7-{[5-(4-fluorophenyl)(1,3,4-oxadiazol-2-yl)]echoxy}-3-(4-hydroxyphenyl)chromen-4-one]
10 nM	No					3-(4-hydroxyphenyl)-7-[(6-pyrazolyl(3-pyridyl))methoxy]chromen-4-one [PT-52]
670 nM	No			24%		O=c1c(-c2ccc(O)cc2)coc2cc(OCCc3cccc(C(F)(F)F)c3)ccc12 [PT-59, 3-(4-hydroxyphenyl)-7-{[3-(trifluoromethyl)phenyl]ethoxy}chromen-4-one]
110 nM						O=c1c(-c2ccc(O)cc2)coc2cc(OCCCc3n[nH]cc3-c3ccc(Cl)cc3)ccc12 [PT-106, 7-{3-[4-(4-chlorophenyl)pyrazolyl]propoxy}-3-(4-hydroxyphenyl)chromen-4-one]
20 nM	No				No	CC(C)OC(=O)c1cccc(COc2ccc3c(=O)c(-c4ccc(O)cc4)coc3c2)c1 [PT-35, methylethyl 3-{[3-(4-hydroxyphenyl)-4-oxochromen-7-yloxy]methyl}benzoate]
18 nM	No			21%		3-(4-hydroxyphenyl)-7-(2-{4-[3-(trifluoromethyl)phenyl]piperazinyl}ethoxy)chromen-4-one [PT-124]
11 nM	No					7-{2-[4-(3-chlorophenyl)piperazinyl]ethoxy}-3-(4-hydroxyphenyl)chromen-4-one [PT-123]
	No				No	N#Cc1cccc(-c2nc(COc3ccc4c(=O)c(-c5ccc(O)cc5)coc4c3)no2)c1 [PT-40, 3-(3-{[3-(4-hydroxyphenyl)-4-oxochromen-7-yloxy]methyl}-1,2,4-oxadiazol-5-yl)benzenecarbonitrile]
48 nM	No	18				CC(Oc1ccc2c(=O)c(-c3ccc(O)cc3)coc2c1)c1noc(-c2cc(F)cc(C(F)(F)F)c2)n1 (stereo not shown)
	No			No		Nc1cccc(-c2nnc(COc3ccc4c(=O)c(-c5ccc(O)cc5)coc4c3)o2)c1 [PT-121, 7-{[5-(3-aminophenyl)(1,3,4-oxadiazol-2-yl)]methoxy}-3-(4-hydroxyphenyl)chromen-4-one]
	No				No	C=CCOC(=O)c1cccc(-c2nc(COc3ccc4c(=O)c(-c5ccc(O)cc5)coc4c3)no2)c1 [PT-32, prop-2-enyl 3-(3-{[3-(4-hydroxyphenyl)-4-oxochromen-7-yloxy]methyl}-1,2,4-oxadiazol-5-yl)benzoate]
